Data on one compound can be found in patent US20150276714A1, “METHOD OF IDENTIFYING OR EVALUATING BENEFICIAL ACTIVES AND COMPOSITIONS CONTAINING THE SAME” (The Procter & Gamble Company, priority 2012, published 2015).

Assay [1] concerns human dermal fibroblasts (BJ cell line). The experiment in a line: Oxygen consumption rate (oxidative phosphorylation), XF Extracellular Flux Analyzer. Type of assay: cell-based. The source says: This method enables the non-lethal, simultaneous detection of metabolic indicators associated with the oxidative phosphorylation and glycolysis metabolic pathways in a controlled environment. The method also enables the collection of kinetic data. When assessing the metabolic response to a stressor or test agent, it is important to assess both metabolic pathways simultaneously to understand how the two metabolic pathways interact with the stressor or test agent and/or to one another. Additionally, it is important to monitor the metabolic pathways in real time (i.e., repeating periodic measurements) to observe trends and/or transient responses that may be missed when using methods that provide only static data. Thus, destructive tests are not suitable for use herein since they typically only allow for a single measurement. With regard to the fibroblasts discussed above in FIGS. 5A, 5B, 5C, 5D, 5E, 6, 7A, 7B, 7C, 7D, 7E and 8, frozen human dermal fibroblasts were obtained from the BJ cell line commercially available from ATCC, Bethesda, Md. […] Oxygen consumption rate and extracellular acidification rate may be detected using an XF Extracellular Flux Analyzer or equivalent. […]

For assay [2] the test system is unchanged. The experiment in a line: Extracellular acidification rate (glycolysis), XF Extracellular Flux Analyzer. Type of assay: cell-based. The source says: This method enables the non-lethal, simultaneous detection of metabolic indicators associated with the oxidative phosphorylation and glycolysis metabolic pathways in a controlled environment. The method also enables the collection of kinetic data. When assessing the metabolic response to a stressor or test agent, it is important to assess both metabolic pathways simultaneously to understand how the two metabolic pathways interact with the stressor or test agent and/or to one another. Additionally, it is important to monitor the metabolic pathways in real time (i.e., repeating periodic measurements) to observe trends and/or transient responses that may be missed when using methods that provide only static data. Thus, destructive tests are not suitable for use herein since they typically only allow for a single measurement. With regard to the fibroblasts discussed above in FIGS. 5A, 5B, 5C, 5D, 5E, 6, 7A, 7B, 7C, 7D, 7E and 8, frozen human dermal fibroblasts were obtained from the BJ cell line commercially available from ATCC, Bethesda, Md. The fibroblasts were grown to 70-80% confluence in a culture medium of Eagle's Minimum Essential Medium (“EMEM”) supplemented with 10% fetal bovine serum (“FBS”) and gentamicin/amphotericin B ×500 solution (EMEM and FBS are available from ATCC, and gentamicin/amphotericin B ×500 solution is available from Invitrogen). The fibroblasts were plated at 1×10^5 cells per well in Gelatin-coated plates 24 hours prior to testing. Each well included 100 μL of the fibroblast medium described above. A test medium was made from Dulbecco's Modified Eagle Medium (available from Seahorse Bioscience), 25 mM glucose and 1 mM pyruvate. The test medium was warmed to 37° C. and the pH adjusted to 7.4. The cells were grown and plated at 37° C. and 5% CO2 air. The fibroblast medium in the wells was replaced by the test medium 1 hour prior to taking measurements. Oxygen consumption rate and extracellular acidification rate may be detected using an XF Extracellular Flux Analyzer or equivalent. […]

`NC(=O)c1cccnc1` [niacinamide]: in assay [1] (1.0 mM niacinamide by itself), the “effect on oxphos metabolism” value is recorded as “no significant affect on the oxphos metabolism”. Further, the “effect on OCR in presence of hydrogen peroxide” value in assay [1] (niacinamide 1.0 mM in combination with […] hydrogen peroxide) was “lessen the initial decrease in OCR somewhat”. Moreover, the “effect on hydrogen peroxide-induced decrease in glycolysis metabolism” value in assay [2] (plate 1, 0.1 mM and […] niacinamide in combination with […] hydrogen peroxide) is “lessen the detrimental effect of the hydrogen peroxide on glycolysis metabolism”. In assay [2] (plate 2, 0.5 mM and 1.0 mM niacinamide in combination with […] hydrogen peroxide), the “effect on hydrogen peroxide-induced decrease in extracellular acidification rate” value is on record as “prevent the acidification rate from decreasing below the basal value”. Also, the “effect on fibroblast glycolysis” value in assay [2] (plate 2, 1.0 mM niacinamide by itself) is on record as “substantially no effect on fibroblast glycolysis”.
